Results taken from patent US20230083012A1, “DIHYDROPYRIMIDINE DERIVATIVES AND USES THEREOF IN THE TREATMENT OF HBV INFECTION OR OF HBV-INDUCED DISEASES” (priority 2019, published 2023).
pEC50: −log10 of the molar value.

Legend:
HBV = assay: Anti-HBV activity in HepG2.2.15 cells (HBV DNA in culture medium by qPCR); type: cell-based; settings: HepG2.2.15 cells, 6 days treatment, HBV DNA in culture medium quantified by real-time PCR; read-out: EC50
In short: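 Secreted HBV DNA was measured by real-time PCR after 6-day compound exposure of HepG2.2.15 cells (2% FBS, 37 °C, re-dosed after 3 days), giving EC50 from 8-point 1:3 series starting at 10 or 1 uM. Cytotoxicity (CC50) run separately at lower cell density, top 100 uM.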

HepG2.2.15 cells = assay: Cytotoxicity determination in HepG2.2.15 cells (CCK-8 cell viability); type: cell-based; settings: 6 days treatment, CCK-8 assay, highest concentration 100 uM
In short: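 Viability measured by CCK-8 absorbance (450 nm, 630 nm reference, 2.5 h at 37° C) after six days of treatment, medium and compound renewed on day 3. Top concentration 100 uM, eight threefold dilutions in triplicate; cells plated at 5,000/well in 2% FBS medium; CC50 derived.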

SMILES | pEC50 (HBV) | CC50 (HepG2.2.15 cells) [nM]
COC(=O)C1=C(CN2CC(F)(F)[C@H]3[C@@H]2CCN3C[C@@H](C)C(=O)O)NC(c2nccs2)=N[C@H]1c1cccc(F)c1C (single isomer, unassigned) [Compound 131B, 3-((cis)-6,6-Difluoro-4-(((S*)-6-(3-fluoro-2-methylphenyl)-5-(methoxycarbonyl)-2-(thiazol-2-yl)-3,6-dihydropyrimidin-4-yl)methyl)hexahydropyrrolo[3,2-b]pyrrol-1(2H)-yl)-2-methylpropanoic acid] | 7.53 | 65600
CCOC(=O)C1=C(CN2CC(F)(F)[C@H]3[C@@H]2CN(C(C)=O)N3CCC(C)(C)C(=O)O)NC(c2nccs2)=N[C@H]1c1cccc(F)c1C [Compound 70B, 4-((cis)-2-Acetyl-4-(((S)-5-(ethoxycarbonyl)-6-(3-fluoro-2-methylphenyl)-2-(thiazol-2-yl)-3,6-dihydropyrimidin-4-yl)methyl)-6,6-difluorohexahydropyrrolo[3,2-c]pyrazol-1(2H)-yl)-2,2-dimethylbutanoic acid] | 7.80 | > 50000
